In US5739163A, “Aromatic compounds containing basic and acidic termini useful as fibrinogen receptor antagonists” (The DuPont Merck Pharmaceutical Company, priority 1996, dated 1998) one finds IC50 and inhibition data, which are given here for 41 compounds.

The assay deals with agonist-induced platelet aggregation. In words: Platelet Aggregation Assay. Type of assay: cell-based. As to conditions: human platelet-rich plasma. As for the experimental part: Platelet Aggregation Assay: Venous blood was obtained from the arm of a healthy human donor who was drug-free and aspirin-free for at least two weeks prior to blood collection. Blood was collected into 10 mL citrated Vacutainer tubes. The blood was centrifuged for 15 minutes at 150×g at room temperature, and platelet-rich plasma (PRP) was removed. The remaining blood was centrifuged for 15 minutes at 1500×g at room temperature, and platelet-poor plasma (PPP) was removed. […] The results are expressed as % inhibition of agonist-induced platelet aggregation. For the IC50 evaluation, the test compounds were added at various concentrations prior to the activation of the platelets.

[1] abbreviates: Homo sapiens, Platelet, class symbols.
[2] abbreviates: Homo sapiens, Platelet, numeric bound.

Structures can show the parent of a compound that is named as a salt. Some results are limits rather than exact numbers.

As to `CCOc1cc(/C=C/C(=O)c2cccc(OCCN)c2)ccc1OCC(=O)O` [Example 22, (E)-4-[3-((3-(2-Aminoethoxy)phenyl))-3-oxo-1-propenyl]-2-ethoxyphenoxyacetic acid.trifluoroacetate], the IC50 under setting [1] was under 10 µM. `CCOC(=O)c1cc(/C=C/C(=O)c2ccccc2OCCCN)ccc1OCC(=O)O` [Example 251] gave an inhibition at 100 µM of 18%. The same compound returned an IC50 under setting [2] of over 100 µM. As to `NCCOc1cccc(C(=O)/C=C/c2ccc(OCC(=O)O)c(C(=O)OCC(=O)O)c2)c1` [Example 25, (E)-(Carboxymethyl) 5-[3-((3-(2aminoethoxy)-phenyl))-3-oxo-1-propenyl]-2-(carboxymethoxy)benzoate.trifluoroacetate], the concentration for half-maximal inhibition (IC50) under setting [1] was under 10 µM.

With `NCCOc1cccc(C(=O)/C=C/c2ccc(OCC(=O)O)c(C(=O)OCc3ccccc3)c2)c1` [Example 28, (E)-Benzyl 5-[3-((3-(2-aminoethoxy)phenyl))-3-oxo-1-propenyl]-2-(carboxymethoxy)benzoate.trifluoroacetate], the IC50 under setting [1] lay in the range of 51 to 100 µM. Same read-out and setting: under `CCOc1cc(OCCN)cc(C(=O)/C=C/c2ccc(OCC(=O)O)cc2)c1` [Example 21, (E)-4-[3-((3-(2-Aminoethoxy)-5-ethoxyphenyl))-3-oxo-1-propenyl]phenoxyacetic acid.trifluoroacetate] stands 10 to 50 µM; under `CCOC(=O)c1cc(/C=C/C(=O)c2cc(OCC)cc(OCCN)c2)ccc1OCC(=O)O` [Example 20, (E)-Ethyl 5-[3-((3-(2-aminoethoxy)-5-ethoxyphenyl))-3-oxo-1-propenyl]-2-(carboxymethoxy)benzoate.trifluoroacetate], 10 to 50 µM; under `COc1cc(/C=C/C(=O)c2cccc(N3CCNCC3)c2)ccc1OCC(=O)O` [Example 120], under 10 µM. On the same count and under the same terms, the same measure for `NCCOc1cccc(C(=O)/C=C/c2ccc(OCC(=O)O)c(-c3ccccc3)c2)c1` [Example 75c]: 51 to 100 µM. `C=CCc1cc(/C=C/C(=O)c2cccc(OCCN)c2)cc(C(=O)OC)c1OCC(=O)O` [Example 75b] yielded an IC50 under setting [2] of over 100 µM. Compound `CCOc1cc(/C=C/C(=O)c2cccc(CCN)c2)ccc1OCC(=O)O` [Example 91, (E)-4-[3-((3-(2-Aminoethyl)phenyl))-3-oxo-1-propenyl]-2-ethoxyphenoxyaceticacid trifluoroacetate] yielded an IC50 under setting [1] of 51 to 100 µM. On the same count and under the same terms, under `C=CCOc1ccc(OCCN)cc1C(=O)/C=C/c1ccc(OCC(=O)O)c(C(=O)OCC(=O)O)c1` [Example 44, (E)-(Carboxymethyl) 5-((3-((2-(1-prop-2-enyloxy)-5-(2-aminoethoxy)phenyl))-3-oxo-1-propenyl))-2-(carboxymethoxy)benzoate.trifluoroacetate] stands under 10 µM. With `NCCc1cccc(C(=O)/C=C/c2ccc(OCC(=O)O)c([N+](=O)[O-])c2)c1` [Example 93], testing at 100 µM gave an inhibition of 21%. In addition, the 50% inhibitory concentration (IC50) under setting [2] was over 100 µM. As to `COc1ccc(/C=C/C(=O)c2cccc(OCCN)c2)cc1CC(=O)O` [Example 252], at 100 µM the inhibition was 38%. Also, under setting [2], the IC50 is over 100 µM. For `COc1cc(/C=C/C(=O)c2cccc(CNC(=N)N)c2)ccc1OCC(=O)O` [Example 112, (E)-4-[3-((3-(guanidinylmethyl)phenyl))-3-oxo-1-propenyl]-2-methoxyphenoxyacetic acid.trifluoroacetate], the IC50 under setting [1] fell in the range of 10 to 50 µM. The same measure, in the same setting: the same measure for `NCc1cccc(C(=O)/C=C/c2ccc(OCC(=O)O)c(OCC(=O)O)c2)c1` [Example 76]: 51 to 100 µM; for `CCOC(=O)COC(=O)c1cc(/C=C/C(=O)c2cccc(OCCN)c2)ccc1OCC(=O)O` [Example 27, (E)-(2-Ethoxy-2-oxoethyl) 5-[3-((3-(2-amino-ethoxy)phenyl))-3-oxo-1-propenyl]-2-(carboxymethoxy)-benzoate.trifluoroacetate]: 51 to 100 µM. In the case of `NCCOc1cccc(C(=O)/C=C/c2ccc(OCC(=O)O)cc2)c1` [Example 75a], the IC50 (class symbols) was 51 to 100 µM. `CNCCOc1cccc(C(=O)/C=C/c2ccc(OCC(=O)O)c(OC)c2)c1` [Example 121, (E)-4-[[3-[3-((2-(methylamino)ethoxy))-phenyl]-3-oxo-1-propenyl]]-2-methoxyphenoxyacetic acid.trifluoroacetate]: the IC50 under setting [1] fell in the range of 10 to 50 µM. Compound `COc1cc(C(=O)/C=C/c2cccc(OCCN)c2)ccc1OCC(=O)O` [Example 211, (E)-4-[3-((3-(2-aminoethoxy)phenyl))-1-oxo-prop-2-enyl]-2-methoxyphenoxyacetic acid.trifluoroacetate] showed an IC50 under setting [2] of over 100 µM. Same read-out and setting: under `NCc1cccc(C(=O)/C=C/c2ccc(OCC(=O)O)cc2)c1` [Example 125a] stands over 100 µM. For `NCc1ccc(C(=O)/C=C/c2ccc(OCC(=O)O)c([N+](=O)[O-])c2)cc1` [Example 250], the half-inhibitory concentration (IC50) under setting [2] was over 100 µM. For the compound `COC(=O)c1cc(/C=C/C(=O)c2cccc(OCCN)c2)ccc1OCC(=O)O` [Example 30], the IC50 under setting [1] fell in the range of 10 to 50 µM. With `NCCCCc1ccc(C(=O)/C=C/c2ccc(CCC(=O)O)cc2)cc1` [Example 243], the IC50 under setting [2] was over 100 µM.

The compound `NCCCCc1ccc(C(=O)/C=C/c2ccc(OCC(=O)O)cc2)cc1` [Example 241] had a concentration for half-maximal inhibition (IC50) under setting [2] of over 100 µM. The same measure, in the same setting: the same measure for `NCCOc1cccc(C(=O)/C=C/c2ccc(OCCC(=O)O)cc2)c1` [Example 242]: over 100 µM. The compound `CCCCOC(=O)c1cc(/C=C/C(=O)c2cccc(OCCN)c2)ccc1OCC(=O)O` [Example 24, (E)-n-Butyl 5-[3-((3-(2-aminoethoxy)-phenyl))-3-oxo-1-propenyl]-2-(carboxymethoxy)benzoate-trifluoroacetate] displayed an IC50 under setting [1] of 10 to 50 µM.

Under setting [1], `NCCOc1ccc(OCc2ccccc2)c(C(=O)/C=C/c2ccc(OCC(=O)O)c(C(=O)OCC(=O)O)c2)c1` [Example 43] returned an IC50 of under 10 µM. Same read-out and setting: under `COc1cc(/C=C/C(=O)c2cccc(OCCN)c2)ccc1OCC(=O)O` [Example 23] stands under 10 µM.

Regarding `COc1cc(OCC(=O)O)ccc1/C=C/C(=O)c1cccc(OCCN)c1` [Example 65, (E)-4-[3-((3-(2-Aminoethoxy)phenyl))-3-oxo-1-propenyl]-3-methoxyphenoxyacetic acid.hydrochloride], the IC50 under setting [1] lay within 10 to 50 µM. `NCc1cccc(C(=O)/C=C/c2cccc(OCC(=O)O)c2)c1` [Example 244] gave an IC50 under setting [2] of over 100 µM. Same read-out and setting: the same measure for `NCCc1cccc(C(=O)/C=C/c2ccc([N+](=O)[O-])c(OCC(=O)O)c2)c1` [Example 240]: over 100 µM.

As for `CCOC(=O)c1cc(/C=C/C(=O)c2cccc(CC(C)N)c2)ccc1OCC(=O)O` (stereo not shown) [Example 101, (E)-Ethyl 5-[3-((3-(2-aminopropyl)phenyl))-3-oxo-1-propenyl]-2(carboxymethoxy)benzoate.trifluoroacetate], the IC50 (class symbols) lay in the range of 10 to 50 µM. Compound `CCOC(=O)c1cc(/C=C/C(=O)c2cccc(C#CCN)c2)ccc1OCC(=O)O` [Example 247] returned an IC50 under setting [2] of over 100 µM. `NCCOc1cccc(C(=O)/C=C/c2ccc(OCC(=O)O)cc2)c1` [Example 1, (E)-4-[3-((3-(2-Aminoethoxy)phenyl))-3-oxo-1-propenyl]phenoxyacetic acid.hydrochloride] had an IC50 (class symbols) of 10 to 50 µM. In the case of `NCCOc1cccc(C(=O)CCc2ccc(OCC(=O)O)cc2)c1` [Example 126, 4-[3-((3-(2-Aminoethoxy)phenyl))-3-oxo-1-propyl]phenoxyacetic acid.hydrochloride], the IC50 under setting [1] was 51 to 100 µM. Same read-out and setting: under `CCOC(=O)c1cc(/C=C/C(=O)c2cccc(OCCN)c2)ccc1OCC(=O)O` [Example 2, (E)-Ethyl 5-[3-((3-(2-aminoethoxy)phenyl))-3-oxo-1-propenyl]-2-(carboxymethoxy)benzoate.trifluoroacetate] stands 10 to 50 µM. On to `NCc1ccc(C(=O)/C=C/c2ccc(CCC(=O)O)cc2)cc1` [Example 245], for which the inhibition at 100 µM was found to be 19%. In addition, under setting [2], the IC50 is over 100 µM. `NCCOc1cccc(C(=O)/C=C/c2ccc(OCC(=O)O)c(OCC(=O)O)c2)c1` [Example 29, (E)-4-[3-((3-(2-Aminoethoxy)phenyl))-3-oxo-1-propenyl]benzene-1,2-bis(oxyacetic acid).trifluoroacetate] displayed an IC50 under setting [1] of 10 to 50 µM. Still for that read-out and setting: under `NCCOc1cccc(C(=O)/C=C/c2ccc(OCC(=O)O)c([N+](=O)[O-])c2)c1` [Example 26, (E)-4-[3-((3-(2-Aminoethoxy)phenyl))-3-oxo-1-propenyl]-2-nitrophenoxyacetic acid.trifluoroacetate] stands under 10 µM; under `C=CCOc1ccc(OCCN)cc1C(=O)/C=C/c1ccc(OCC(=O)O)c(C(=O)OCC)c1` [Example 3, (E)-Ethyl 5-[3-((2-(1-prop-2-enyloxy)-5-(2aminoethoxy)phenyl))-3-oxo-1-propenyl]-2-(carboxymethoxy)benzoate.trifluoroacetate], under 10 µM. Compound `CN(C)CCOc1cccc(C(=O)/C=C/c2cccc(C(=O)O)c2)c1` [Example 248] registered an inhibition at 100 µM of 13%. The IC50 under setting [2] is over 100 µM.
